The values below come from ChEMBL document CHEMBL5150057, “Making Protein Degradation Visible: Discovery of Theranostic PROTACs for Detecting and Degrading NAMPT” (J Med Chem, 2022).

Series [1] addresses T1, Nicotinamide phosphoribosyltransferase (Homo sapiens, UniProt P43490). The series is described as follows: Induction of NAMPT degradation in human A2780 cells at 50 nM after 24 hrs by Western blot analysis. It counts as cell-based. A general note: Immunoblotting shows a protein as a band on a membrane.
Target sequence in this assay (P43490 whole entry, looked up): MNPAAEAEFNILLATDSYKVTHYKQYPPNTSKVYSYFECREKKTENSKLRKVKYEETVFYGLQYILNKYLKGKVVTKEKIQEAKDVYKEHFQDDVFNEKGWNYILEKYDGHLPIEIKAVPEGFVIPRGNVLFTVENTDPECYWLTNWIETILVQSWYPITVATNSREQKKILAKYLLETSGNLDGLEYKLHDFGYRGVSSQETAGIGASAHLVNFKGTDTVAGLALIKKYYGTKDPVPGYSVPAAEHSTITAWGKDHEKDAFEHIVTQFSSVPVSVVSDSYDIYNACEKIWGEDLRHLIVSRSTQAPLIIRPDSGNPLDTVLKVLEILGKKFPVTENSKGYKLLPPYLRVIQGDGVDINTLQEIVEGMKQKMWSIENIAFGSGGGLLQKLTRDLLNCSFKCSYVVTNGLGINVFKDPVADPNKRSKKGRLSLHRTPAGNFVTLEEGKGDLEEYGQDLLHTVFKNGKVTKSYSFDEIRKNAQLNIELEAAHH
Series [2] relates to A2780. The series is described as follows: Cytotoxicity against human A2780 cells assessed as cell growth inhibition incubated for 72 hrs by CCK-8 assay. In kind it is functional, cell-based. The conditions noted are these: A2780, 72 h. (In general: Formazan colour is commonly taken as a measure of viable cells.)
Series [3] deals with T1, Nicotinamide phosphoribosyltransferase. Nature of the series: Induction of NAMPT degradation in human A2780 cells at 30 nM after 24 hrs by Western blot analysis. In kind it is cell-based.
Target sequence in this assay (P43490 whole entry, looked up): as above
For series [4] the target is unchanged. Nature of the series: Inhibition of NAMPT catalytic domain (unknown origin) using NAM as substrate preincubated for 5 mins followed by substrate addition.
Target sequence in this assay (P43490 whole entry): as the sequence (P43490 whole entry, looked up) above
The test system of a further series is HUVEC. Nature of the series: Cytotoxicity against HUVEC assessed as cell growth inhibition incubated for 72 hrs by CCK-8 assay. It counts as toxicity, cell-based. The note with it: human.
The nature of series [5]: Toxicity in BALB/c nude mouse xenografted with human A2780 cells at 30 mg/kg, ip administered once daily for 14 days by caliper method. In kind it is organism-based. The conditions noted are these: in vivo, 336 h, time 14 day.
The target in series [6] is T1, Nicotinamide phosphoribosyltransferase. The series is described as follows: Induction of NAMPT degradation in human A2780 cells at greater than 50 nM after 24 hrs by Western blot analysis. In kind it is cell-based.
Target sequence in this assay (P43490 whole entry, looked up): as above
In series [7] the test system is A2780. The series is described as follows: Antitumor activity against human A2780 cells xenografted in ip dosed BALB/c nude mouse administered once daily for 14 days by caliper method. In kind it is functional, organism-based. The conditions noted are these: dose 10-30 mg/kg, time 14.0 day, DDE = dose-dependent effect. For orientation: A xenograft is tissue or cells of one species grown in another, often human tumour cells in immunodeficient mice.

The nature of series [8]: AUC (0 to infinity) in Sprague-Dawley rat at 30 mg/kg, ip measured upto 24 hrs by LC-MS/MS analysis. In kind it is ADME, organism-based. Further details: time < 24 hrs, dose 30 mg/kg, route ip. The conditions noted are these: in vivo.
Series [9] has as its target T1, Nicotinamide phosphoribosyltransferase. The series is described as follows: Induction of NAMPT degradation in human A2780 cells at 30 nM incubated for 24 hrs in presence of MG132. It counts as cell-based.
Target sequence in this assay (P43490 whole entry, looked up): as above
Series [10] shares this target. Nature of the series: Induction of NAMPT degradation in human A2780 cells at 30 nM after 1 hr. It counts as cell-based.
Target sequence in this assay (P43490 whole entry, looked up): as above
The subject of another series is Mus musculus. Nature of the series: In vivo induction of NAMPT degradation in human A2780 cells xenografted in BALB/c mouse at 10 to 30 mg/kg, ip administered once daily for 14 days by immunofluorescence analysis. In kind it is functional, organism-based. The note with it: dose 10-30 mg/kg, time 14.0 day.
The target of series [11] is T1, Nicotinamide phosphoribosyltransferase. The series is described as follows: Induction of NAMPT degradation in human A2780 cells after 24 hrs by Western blot analysis. In kind it is cell-based.
Series [12] can be described thus: Drug uptake in human A2780 cells at 1 uM after 30 mins by immunostaining based assay. In kind it is ADME, cell-based. The conditions noted are these: a2780, 0.5 h.
Series [13] in a line: MRT (0 to infinity) in Sprague-Dawley rat at 30 mg/kg, ip measured upto 24 hrs by LC-MS/MS analysis. In kind it is ADME, organism-based. The note with it: in vivo.
In series [14] the target is T1, Nicotinamide phosphoribosyltransferase. The series is described as follows: Induction of NAMPT degradation in human A2780 cells at 30 nM after 24 hrs. It counts as cell-based.
Target sequence in this assay (P43490 whole entry, looked up): as above
Series [15] in a line: Toxicity in BALB/c nude mouse xenografted with human A2780 cells at 10 to 30 mg/kg, ip administered once daily for 14 days by caliper method. In kind it is organism-based. The conditions noted are these: in vivo, 336 h, dose 10-30 mg/kg, time 14 day.
Series [16] has as its target T1, Nicotinamide phosphoribosyltransferase. Nature of the series: Binding affinity to NAMPT in human A2780 cells assessed as change in melting temperature at 10 uM after 2 hrs by CESTA. In kind it is cell-based.
For series [17] the target is unchanged. The series is described as follows: Induction of NAMPT degradation in human A2780 cells at 30 nM. It counts as cell-based. The conditions noted are these: time 1-24 hrs, TDE = time-dependent effect.
Series [18] is described as follows: Cmax in Sprague-Dawley rat at 30 mg/kg, ip measured upto 24 hrs by LC-MS/MS analysis. It counts as ADME, organism-based. Further details: dose 30 mg/kg, time < 24 hrs, route ip. The conditions noted are these: in vivo.
For series [19], the target named is von Hippel-Lindau disease tumor suppressor (Homo sapiens) (UniProt P40337). The series is described as follows: Binding affinity to VHL in human A2780 cells assessed as change in melting temperature at 10 uM after 2 hrs by CESTA. In kind it is cell-based.
Sequence of von Hippel-Lindau disease tumor suppressor (Homo sapiens) (P40337 whole entry, looked up): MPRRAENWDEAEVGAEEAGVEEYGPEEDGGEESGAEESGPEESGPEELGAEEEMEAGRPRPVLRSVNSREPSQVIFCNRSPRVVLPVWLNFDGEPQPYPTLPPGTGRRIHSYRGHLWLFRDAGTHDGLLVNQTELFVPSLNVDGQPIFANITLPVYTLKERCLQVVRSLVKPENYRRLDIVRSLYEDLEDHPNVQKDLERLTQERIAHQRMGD
The test system of series [20] is A2780. Nature of the series: Antitumor activity against human A2780 cells xenografted in BALB/c nude mouse assessed as tumor growth inhibition at 30 mg/kg, ip administered once daily for 14 days by caliper method. In kind it is functional. The conditions noted are these: A2780, 336 h, time 14 day, read-out: TGI.
Series [21] can be described thus: Half life in Sprague-Dawley rat at 30 mg/kg, ip measured upto 24 hrs by LC-MS/MS analysis. It counts as ADME, organism-based. The note with it: in vivo.
The target of series [22] is T1, Nicotinamide phosphoribosyltransferase. The series is described as follows: Induction of NAMPT degradation in human A2780 cells assessed as downregulation of NAD+ levels at 4.1 nM incubated for 24 hrs […]. In kind it is cell-based.
Series [23] shares this target. The series is described as follows: Binding affinity to NAMPT in human A2780 cells by flow cytometry analysis. The conditions noted are these: time 0.5-24 hrs. In kind it is cell-based.
In series [24] the test system is A2780. The series is described as follows: Cytotoxicity against human A2780 cells assessed as cell growth inhibition incubated for 72 hrs in presence of (2S,4R)-1-(2-amino-3,3-dimethyl-butanoyl)-4-hydroxy-N-[(1S)-1-[4-(4-methylthiazol-5-yl)phenyl]ethyl]pyrrolidine-2-carboxamide by CCK-8 assay. It counts as functional, cell-based. The note with it: A2780, 72 h.
The nature of series [25]: Tmax in Sprague-Dawley rat at 30 mg/kg, ip measured upto 24 hrs by LC-MS/MS analysis. In kind it is ADME, organism-based. The conditions noted are these: in vivo.
Series [26] is described as follows: Photostability of compound in PBS at pH 7.4. In kind it is physicochemical. The note with it: buffer.
Series [27] has as its system A2780. Nature of the series: Antitumor activity against human A2780 cells xenografted in BALB/c nude mouse assessed as tumor growth inhibition at 10 mg/kg, ip administered once daily for 14 days by caliper method. It counts as functional. The note with it: A2780, 336 h, time 14 day, read-out: TGI.
Series [28] is described as follows: Drug uptake in human A2780 cells at 500 nM within 1 to 6 hrs by immunostaining based assay. The note with it: a2780, 0.5 µM, time 1-6 hrs. It counts as ADME, cell-based.
Series [29] can be described thus: Drug uptake in human A2780 cells at 500 nM within 1 to 6 hrs by confocal imaging analysis. The conditions noted are these: a2780, 0.5 µM, time 1-6 hrs. In kind it is ADME, cell-based.
A short description of series [30]: Drug uptake in human A2780 cells at 500 nM after 6 hrs by confocal imaging analysis. The note with it: a2780, 6 h, 0.5 µM. It counts as ADME, cell-based.
Series [31] deals with T1, Nicotinamide phosphoribosyltransferase. Nature of the series: Induction of NAMPT degradation in human A2780 cells at 100 nM after 24 hrs by Western blot analysis. It counts as cell-based.

What is called IC50 is the point on the concentration scale where inhibition reaches its midpoint. As a reminder, the AUC(0-inf) is the area under the concentration-time curve extrapolated to infinity. A low value points to less exposure. What is called DC50 is the midpoint of the concentration-degradation curve. A high value points to degradation only at high concentration. One may read the MRT inf as a mean duration of stay, worked out from the concentration-time curve. Broadly, the ΔTm is the shift of the melting midpoint relative to a reference. One may read the Cmax as the peak of the concentration-time curve. Usually half-life stands for how long it takes for the measured level to halve. One may read the Tmax as the time from dosing to the highest level.

Activity calls are given as the source filed them. The calls are words filed in the database; no cut-off is given here.

For `CCCn1c(=O)c(-c2ccc(C(=O)NCc3cccnc3)cc2)nc2ccc(NC(=O)CCCCCCCCC(=O)N[C@H](C(=O)N3C[C@H](O)C[C@H]3C(=O)N[C@@H](C)c3ccc(-c4scnc4C)cc3)C(C)(C)C)cc21`, the outcome in series [1] and in series [3] was Active. Also, the IC50 in the series on A2780 [2] was 14 nM.
With `CCCn1c(=O)c(-c2ccc(C(=O)NCc3cccnc3)cc2)nc2ccc(NC(=O)CCCCC(=O)N[C@H](C(=O)N3C[C@H](O)C[C@H]3C(=O)N[C@@H](C)c3ccc(-c4scnc4C)cc3)C(C)(C)C)cc21`, in the series on A2780 [2], the IC50 stood at 88 nM.
As for `CCCn1c(=O)c(-c2ccc(C(=O)NCc3cccnc3)cc2)nc2ccccc21`, the IC50 in series [4] came to 57.8 nM; in the series with A2780 [2], 99 nM. In addition, the figures for the Activity result (with HUVEC; in [5]) were “Non-Toxic” and “Toxic”, respectively.
For `CCCn1c(=O)c(-c2ccc(C(=O)NCc3cccnc3)cc2)nc2ccc(NC(=O)CCCCCCCCCCC(=O)N[C@H](C(=O)N3C[C@H](O)C[C@H]3C(=O)N[C@@H](C)c3ccc(-c4scnc4C)cc3)C(C)(C)C)cc21`, the result (in series [6]; in series [9]; in [10]; in the series on Mus musculus; in [14]; in [22]) was Active. Besides, the result in [23] and in series [3] was Active. Besides, the Activity entry was “Dde” in the series on A2780 [7]; “Dde” in series [11] (DDE = dose-dependent effect); “Non-Toxic” in series [15]; “Tde” in series [17]; “Non-Toxic” with HUVEC. The AUC(0-inf) in series [8] was 1110 ng·h/mL. Besides, the DC50 in series [11] was 8.4 nM. Further, the Drug uptake result in series [12] and in [28] was “Active” in each case. In addition, the values for the IC50 (in [4]; in the series on A2780 [2]; in the series on A2780 [24]) were 41.9 nM, 12.1 nM and 100 nM, respectively. Further, in [13], the MRT inf was 12.7 h. Further, the results for the thermal shift (ΔTm) in series [16] and in [19] were 5.11 °C and above 2.62 °C, respectively. The highest level in [18] (Cmax) was 175 ng/mL. For the same compound, the inhibition in vivo at 30 mg/kg with A2780 [20] is 73%. The same compound had a half-life in series [21] of 9.81 h. Besides, the time of peak concentration (Tmax) in [25] worked out at 4 h. Moreover, in series [26], the Stability entry was “Stable”. The inhibition in vivo at 10 mg/kg in the series with A2780 [27] was found to be 53%.
`CCCn1c(=O)c(-c2ccc(C(=O)NCc3cccnc3)cc2)nc2ccc(NC(=O)CCCCCCCCCCC(=O)N[C@H](C(=O)N3C[C@@H](O)C[C@@H]3C(=O)N[C@@H](C)c3ccc(-c4scnc4C)cc3)C(C)(C)C)cc21`: the IC50 in the series on A2780 [2] worked out at 143 nM. Also, the Drug uptake result in series [29] and in [30] was “Active” each time.
As to `CCCn1c(=O)c(-c2ccc(C(=O)NCc3cccnc3)cc2)nc2ccc(NC(=O)CCCCCCC(=O)N[C@H](C(=O)N3C[C@H](O)C[C@H]3C(=O)N[C@@H](C)c3ccc(-c4scnc4C)cc3)C(C)(C)C)cc21`, the outcome in series [31] and in series [3] was Active. In addition, the IC50 with A2780 [2] came out at 20.8 nM.
